Earlier results, collected in US20110104279A1, “HEALING POWDER AND METHOD OF USE THEREOF” (priority 2009, published 2011).

Assays:
[1] = tested on: full thickness wounds in the backs of pigs; settings: wounds 25 mm square, 9 mm deep, packed and covered with Opsite
[2] = tested on: acute mediastinitis wounds; settings: 19 patients, wounds packed every 3 to 4 hours

Compound	wound healing compared with wounds covered with Opsite alone [1]	average time of treatment to near complete debridement, granulation tissue formation and eradication of bacterial infection [2] [days]
N=C(NCCCCCCNC(=N)NC(=N)Nc1ccc(Cl)cc1)NC(=N)Nc1ccc(Cl)cc1.O=C(O)[C@H](O)[C@@H](O)[C@H](O)[C@H](O)CO.O=C(O)[C@H](O)[C@@H](O)[C@H](O)[C@H](O)CO [chlorhexidine gluconate]	delayed healing	
OC[C@H]1O[C@@](CO)(O[C@H]2O[C@H](CO)[C@@H](O)[C@H](O)[C@H]2O)[C@@H](O)[C@@H]1O [granular sugar, sucrose]		7.6
